Test results: ChEMBL document CHEMBL1909046, “DrugMatrix in vitro pharmacology data”

Legend:
[1] = DRUGMATRIX: GABAA, Flunitrazepam, Central radioligand binding (ligand: [3H] Flunitrazepam); type: cell membranes, Rattus norvegicus, Wistar, Brain, Membrane; settings: Not Active = under 50% inhibition at 10 µM
[2] = target: Platelet-activating factor receptor (Homo sapiens, UniProt P25105); type: tissue-based; also: in other assays of this panel Not Active means under 50% inhibition at 10 µM
[3] = target: T1, Thromboxane-A synthase (Homo sapiens, UniProt P24557); assay: biochemical; type: tissue-based, Platelet;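 also: enzyme inhibition assay with PGH2 supplied as substrate; in other assays of this panel Not Active means under 50% inhibition at 10 µM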
T1 sequence (P24557 whole entry): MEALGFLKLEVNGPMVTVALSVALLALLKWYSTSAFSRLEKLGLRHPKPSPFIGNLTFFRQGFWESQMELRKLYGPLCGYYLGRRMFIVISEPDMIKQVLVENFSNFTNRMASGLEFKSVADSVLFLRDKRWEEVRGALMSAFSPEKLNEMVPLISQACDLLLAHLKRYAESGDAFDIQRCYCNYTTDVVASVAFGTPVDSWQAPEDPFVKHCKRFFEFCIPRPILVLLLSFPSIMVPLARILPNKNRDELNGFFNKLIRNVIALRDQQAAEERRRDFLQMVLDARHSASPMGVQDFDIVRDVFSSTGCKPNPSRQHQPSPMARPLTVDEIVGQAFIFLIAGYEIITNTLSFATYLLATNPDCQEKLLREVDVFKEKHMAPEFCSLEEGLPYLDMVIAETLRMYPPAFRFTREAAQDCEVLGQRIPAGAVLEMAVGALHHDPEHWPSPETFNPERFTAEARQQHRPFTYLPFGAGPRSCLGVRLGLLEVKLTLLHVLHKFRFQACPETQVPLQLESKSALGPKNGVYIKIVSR

[4] = target: T2, Alpha-2C adrenergic receptor (Homo sapiens, UniProt P18825); assay: DRUGMATRIX: Adrenergic Alpha-2C radioligand binding (ligand: [3H] MK-912); type: cell membranes, Sf9, Membrane
T2 sequence (P18825 whole entry): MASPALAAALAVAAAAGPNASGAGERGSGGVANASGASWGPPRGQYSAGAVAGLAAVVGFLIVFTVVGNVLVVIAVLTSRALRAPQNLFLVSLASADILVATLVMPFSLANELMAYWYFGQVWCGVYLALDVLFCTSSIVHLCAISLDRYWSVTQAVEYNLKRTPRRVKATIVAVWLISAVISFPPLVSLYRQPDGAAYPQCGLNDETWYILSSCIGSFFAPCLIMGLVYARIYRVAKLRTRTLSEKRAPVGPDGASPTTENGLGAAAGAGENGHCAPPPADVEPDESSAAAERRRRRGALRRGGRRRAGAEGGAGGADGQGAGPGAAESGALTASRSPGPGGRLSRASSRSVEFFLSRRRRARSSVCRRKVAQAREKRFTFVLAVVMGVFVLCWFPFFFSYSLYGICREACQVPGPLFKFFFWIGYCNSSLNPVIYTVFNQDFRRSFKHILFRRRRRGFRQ

[5] = target: T3, Vasoactive intestinal polypeptide receptor 1 (Homo sapiens, UniProt P32241); type: cell membranes, Membrane; settings: ht-29; also: in other assays of this panel Not Active means under 50% inhibition at 10 µM
T3 sequence (P32241 whole entry): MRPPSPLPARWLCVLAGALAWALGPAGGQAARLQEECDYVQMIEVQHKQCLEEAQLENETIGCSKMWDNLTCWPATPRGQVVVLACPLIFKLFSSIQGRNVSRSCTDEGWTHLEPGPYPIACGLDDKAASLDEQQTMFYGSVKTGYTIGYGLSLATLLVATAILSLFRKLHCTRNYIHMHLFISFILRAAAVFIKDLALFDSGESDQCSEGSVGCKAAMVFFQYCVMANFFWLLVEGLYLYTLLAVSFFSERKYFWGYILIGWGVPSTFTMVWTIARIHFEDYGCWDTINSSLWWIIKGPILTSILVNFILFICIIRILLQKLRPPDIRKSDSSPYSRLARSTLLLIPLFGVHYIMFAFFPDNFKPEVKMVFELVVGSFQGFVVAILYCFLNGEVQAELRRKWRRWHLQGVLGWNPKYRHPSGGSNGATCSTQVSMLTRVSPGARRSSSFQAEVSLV

[6] = target: Melanocortin receptor 5 (Homo sapiens, UniProt P33032); type: cell membranes, HEK293, Membrane; settings: for Ki: read-out: Ki; as to all read-outs here: in other assays of this panel Not Active means under 50% inhibition at 10 µM
Melanocortin receptor 5, sequence (P33032 whole entry): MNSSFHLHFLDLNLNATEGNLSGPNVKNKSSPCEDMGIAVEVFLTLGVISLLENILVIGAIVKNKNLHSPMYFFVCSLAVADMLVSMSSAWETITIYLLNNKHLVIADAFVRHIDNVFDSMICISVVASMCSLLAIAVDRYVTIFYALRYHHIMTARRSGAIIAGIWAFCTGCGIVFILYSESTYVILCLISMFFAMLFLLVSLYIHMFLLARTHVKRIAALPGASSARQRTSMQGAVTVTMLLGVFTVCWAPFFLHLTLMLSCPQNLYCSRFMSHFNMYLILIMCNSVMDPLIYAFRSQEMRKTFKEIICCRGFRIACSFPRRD

Platelet-activating factor receptor, sequence (P25105 whole entry): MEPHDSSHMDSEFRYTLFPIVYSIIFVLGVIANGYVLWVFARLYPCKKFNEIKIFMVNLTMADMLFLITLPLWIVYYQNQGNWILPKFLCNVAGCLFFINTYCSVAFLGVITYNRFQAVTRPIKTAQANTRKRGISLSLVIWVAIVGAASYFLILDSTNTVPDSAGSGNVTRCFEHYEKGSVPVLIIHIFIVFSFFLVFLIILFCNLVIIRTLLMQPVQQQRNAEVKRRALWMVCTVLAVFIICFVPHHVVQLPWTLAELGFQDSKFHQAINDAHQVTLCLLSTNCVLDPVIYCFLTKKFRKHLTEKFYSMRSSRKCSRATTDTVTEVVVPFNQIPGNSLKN

| SMILES | IC50 [1] | Ki [1] | IC50 [2] | IC50 ([3]; read-out: IC50) [µM] | IC50 ([4]; sf9) | IC50 [5] | IC50 ([6]; hek293) | IC50 ([3]; platelet) | IC50 ([6]; read-out: IC50) [µM] | Ki [6] [µM] | IC50 ([1]; read-out: IC50) [µM] | Ki ([1]; read-out: Ki) [µM] | IC50 ([4]; read-out: IC50) [µM] | Ki ([4]; read-out: Ki) [µM] |
| --- | --- | --- | --- | --- | --- | --- | --- | --- | --- | --- | --- | --- | --- | --- |
| CC(C)(C)NC(=O)[C@@H]1C[C@@H]2CCCC[C@@H]2CN1C[C@@H](O)[C@H](Cc1ccccc1)NC(=O)[C@H](CC(N)=O)NC(=O)c1ccc2ccccc2n1 | Not Active | Not Active | Not Active | 2.18 | Not Active | Not Active | Not Active | – | – | – | – | – | – | – |
| CC(=O)[C@@]1(O)CC[C@H]2[C@@H]3C[C@H](C)C4=CC(=O)CC[C@]4(C)[C@H]3CC[C@@]21C | Not Active | Not Active | Not Active | – | Not Active | Not Active | Not Active | Not Active | – | – | – | – | – | – |
| N[C@@H](Cc1ccc(N(CCCl)CCCl)cc1)C(=O)O | Not Active | Not Active | Not Active | – | Not Active | Not Active | Not Active | Not Active | – | – | – | – | – | – |
| CCCCc1oc2ccccc2c1C(=O)c1cc(I)c(OCCN(CC)CC)c(I)c1 [AMIODARONE] | – | – | Not Active | – | Not Active | Not Active | – | Not Active | 9.5 | 8.91 | – | – | – | – |
| OCCN(CCO)c1nc(N2CCCCC2)c2nc(N(CCO)CCO)nc(N3CCCCC3)c2n1 [DIPYRIDAMOLE] | – | – | Not Active | – | Not Active | Not Active | Not Active | Not Active | – | – | 0.382 | 0.311 | – | – |
| Cc1oncc1C(=O)Nc1ccc(C(F)(F)F)cc1 [LEFLUNOMIDE] | Not Active | Not Active | Not Active | – | Not Active | Not Active | Not Active | Not Active | – | – | – | – | – | – |
| c1ccc([C@H]2CN3CCSC3=N2)cc1 [LEVAMISOLE] | Not Active | Not Active | Not Active | – | Not Active | Not Active | Not Active | Not Active | – | – | – | – | – | – |
| N[C@@H](Cc1ccc(O)c(O)c1)C(=O)O [LEVODOPA] | Not Active | Not Active | Not Active | – | Not Active | Not Active | Not Active | Not Active | – | – | – | – | – | – |
| N[C@@H](Cc1cc(I)c(Oc2ccc(O)c(I)c2)c(I)c1)C(=O)O [LIOTHYRONINE] | – | – | Not Active | – | Not Active | Not Active | Not Active | Not Active | – | – | – | – | – | – |
| O=NN(CCCl)C(=O)NC1CCCCC1 [LOMUSTINE] | Not Active | Not Active | Not Active | – | Not Active | Not Active | Not Active | Not Active | – | – | – | – | – | – |
| CCOC(=O)N1CCC(=C2c3ccc(Cl)cc3CCc3cccnc32)CC1 [LORATADINE] | Not Active | Not Active | Not Active | – | Not Active | Not Active | Not Active | Not Active | – | – | – | – | – | – |
| Cn1ccnc1S [METHIMAZOLE] | Not Active | Not Active | Not Active | – | Not Active | Not Active | Not Active | Not Active | – | – | – | – | – | – |
| CC[C@@H](CO)NC(=O)[C@@H]1C=C2c3cccc4[nH]cc(c34)C[C@H]2N(C)C1 [METHYLERGONOVINE] | Not Active | Not Active | Not Active | – | Not Active | Not Active | Not Active | Not Active | – | – | – | – | – | – |
| COc1nc(C)nc(Cl)c1NC1=NCCN1 [MOXONIDINE] | Not Active | Not Active | Not Active | – | Not Active | Not Active | Not Active | Not Active | – | – | – | – | – | – |
| COc1c(C)c2c(c(O)c1C/C=C(\C)CCC(=O)O)C(=O)OC2 [MYCOPHENOLIC ACID] | Not Active | Not Active | Not Active | – | Not Active | Not Active | Not Active | Not Active | – | – | – | – | – | – |
| O=c1ncn2nc(Sc3ccc(F)cc3F)ccc2c1-c1c(Cl)cccc1Cl [NEFLAMAPIMOD] | – | – | Not Active | – | Not Active | Not Active | Not Active | Not Active | – | – | 12 | 9.77 | – | – |
| CN1CCN(CCCN2c3ccccc3Sc3ccc(Cl)cc32)CC1 [PROCHLORPERAZINE] | – | – | Not Active | – | – | Not Active | Not Active | Not Active | – | – | – | – | – | – |
| CO[C@H]1/C=C/O[C@@]2(C)Oc3c(C)c(O)c4c(O)c(c(/C=N/N5CCN(C)CC5)c(O)c4c3C2=O)NC(=O)/C(C)=C\C=C\[C@H](C)[C@H](O)[C@@H](C)[C@@H](O)[C@@H](C)[C@H](OC(C)=O)[C@@H]1C [RIFAMPIN] | Not Active | Not Active | Not Active | – | Not Active | Not Active | Not Active | Not Active | – | – | – | – | – | – |
| Nc1nc2ccc(OC(F)(F)F)cc2s1 [RILUZOLE] | Not Active | Not Active | Not Active | – | Not Active | Not Active | Not Active | Not Active | – | – | – | – | – | – |
| Cc1nc2n(c(=O)c1CCN1CCC(c3noc4cc(F)ccc34)CC1)CCCC2 [RISPERIDONE] | – | – | Not Active | – | – | Not Active | Not Active | Not Active | – | – | – | – | – | – |
| C=CCC1(C(C)CCC)C(=O)NC(=O)NC1=O (centres undefined) [SECOBARBITAL] | Not Active | Not Active | Not Active | – | Not Active | Not Active | Not Active | Not Active | – | – | – | – | – | – |
| C[C@@H]1CN(c2c(F)c(N)c3c(=O)c(C(=O)O)cn(C4CC4)c3c2F)C[C@H](C)N1 [SPARFLOXACIN] | Not Active | Not Active | Not Active | – | Not Active | Not Active | Not Active | Not Active | – | – | – | – | – | – |
| Cc1noc(NS(=O)(=O)c2ccc(N)cc2)c1C [SULFISOXAZOLE] | Not Active | Not Active | Not Active | – | Not Active | Not Active | Not Active | Not Active | – | – | – | – | – | – |
| CSc1ccc(/C=C2/C(C)=C(CC(=O)O)c3cc(F)ccc32)cc1 [SULINDAC SULFIDE] | Not Active | Not Active | Not Active | – | Not Active | Not Active | Not Active | Not Active | – | – | – | – | – | – |
| Nc1c2c(nc3ccccc13)CCCC2 [TACRINE] | Not Active | Not Active | Not Active | – | Not Active | Not Active | Not Active | Not Active | – | – | – | – | – | – |
| CC/C(=C(\c1ccccc1)c1ccc(OCCN(C)C)cc1)c1ccccc1 [TAMOXIFEN] | – | – | Not Active | 0.916 | Not Active | Not Active | – | – | 26.5 | 24.9 | – | – | – | – |
| CC(C)N1CCN(c2ccc(OCC3COC(Cn4cncn4)(c4ccc(Cl)cc4Cl)O3)cc2)CC1 (centres undefined) [TERCONAZOLE] | Not Active | Not Active | Not Active | – | – | Not Active | Not Active | Not Active | – | – | – | – | 0.418 | 0.061 |
| Nc1nc2nc[nH]c2c(=S)[nH]1 [THIOGUANINE] | Not Active | Not Active | Not Active | – | Not Active | Not Active | Not Active | Not Active | – | – | – | – | – | – |
| Cc1cccc(N(C)C(=S)Oc2ccc3ccccc3c2)c1 [TOLNAFTATE] | Not Active | Not Active | Not Active | – | Not Active | Not Active | Not Active | Not Active | – | – | – | – | – | – |
